PubChem BioAssay (NCI)
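Where inhibition never reached the appropriate level, the endpoint shown equals the highest concentration tested. Otherwise, values were interpolated linearly from a five-concentration, 48-hour dose response in 96-well plates. TGI denotes the concentration required for complete inhibition of growth.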

Legend:
Test in all cases: NCI anticancer screen, dose series, 48 h
[1] = system: HL-60(TB) leukemia
[2] = system: HS 578T breast
[3] = system: HT29 colon
[4] = system: PC-3 prostate
[5] = system: HCT-116 colon
[6] = system: A549 NSCLC
[7] = system: RXF 393 renal
[8] = system: COLO 205 colon
[9] = system: MALME-3M melanoma
[10] = system: HOP-92 NSCLC
[11] = system: KM12 colon
[12] = system: MDA-N
[13] = system: SNB-19 CNS
[14] = system: 786-0 renal
[15] = system: TK-10 renal
[16] = system: SN12C renal
[17] = system: T-47D breast
[18] = system: IGROV1 ovarian
[19] = system: SK-OV-3 ovarian
[20] = system: MDA-MB-435
[21] = system: NCI/ADR-RES ovarian
[22] = system: HCC-2998 colon
[23] = system: CCRF-CEM leukemia
[24] = system: SK-MEL-2 melanoma
[25] = system: K-562 leukemia
[26] = system: HCT-15 colon
[27] = system: SW-620 colon
[28] = system: SF-539 CNS
[29] = system: ACHN renal
[30] = system: OVCAR-3 ovarian
[31] = system: U251 CNS
[32] = system: NCI-H522 lung
[33] = system: HOP-62 NSCLC
[34] = system: CAKI-1 renal
[35] = system: DU-145 prostate
[36] = system: OVCAR-5 ovarian
[37] = system: RPMI-8226 leukemia
[38] = system: UO-31 renal
[39] = system: LOX IMVI melanoma
[40] = system: NCI-H226 lung
[41] = system: MCF7 breast
[42] = system: SK-MEL-5 melanoma
[43] = system: OVCAR-8 ovarian
[44] = system: MOLT-4 leukemia
[45] = system: UACC-257 melanoma
[46] = system: SK-MEL-28 melanoma
[47] = system: MDA-MB-231 breast
[48] = system: M14 melanoma
[49] = system: SF-295 CNS
[50] = system: SNB-75 CNS
[51] = system: NCI-H23 lung
[52] = system: A498 renal
[53] = system: OVCAR-4 ovarian
[54] = system: SF-268 CNS
[55] = system: EKVX NSCLC
[56] = system: NCI-H460 lung
[57] = system: SR leukemia

Measured: TGI

CCC#CCCCCCCCCC(F)C(=O)O (stereo unspecified)
> 100 µM: [1] | [2] | [3] | [4] | [5] | [6] | [7] | [8] | [9] | [10] | [11] | [12] | [13] | [14] | [15] | [16] | [17] | [18] | [19] | [20] | [21] | [22] | [23] | [24] | [25] | [26] | [27] | [28] | [29] | [30] | [31] | [32] | [33] | [34] | [35] | [36] | [37] | [38] | [39] | [40] | [41] | [42] | [43] | [44] | [45] | [46] | [47] | [48] | [49] | [50] | [51] | [52] | [53] | [54] | [55]

Cc1c(C(=O)C(=O)c2ccccc2)c(C)c(C(=O)C(=O)c2ccccc2)c(C)c1C(=O)C(=O)c1ccccc1
> 100 µM: [1] | [2] | [3] | [4] | [5] | [6] | [8] | [11] | [12] | [13] | [14] | [15] | [16] | [17] | [18] | [19] | [20] | [21] | [22] | [23] | [25] | [26] | [27] | [56] | [28] | [29] | [31] | [32] | [33] | [36] | [37] | [38] | [41] | [42] | [43] | [44] | [45] | [46] | [47] | [48] | [57] | [49] | [50] | [53] | [54] | [55]
